Test system: zebrafish larvae
Assay: Ammonia excretion as an indicator of locomotor response to electrical stimulus
Assay type: in vivo, Danio rerio
Settings: MS-222 0.10 mg/mL in media; 30 larvae (4 dpf) per well; stimuli 3 uA, 50 msec, 30 times per hour for 12 hours; colorimetric ammonia assay; FIG. 7
Experimental: To create the graphs in the subsequent Examples, the initial conditions consisted of harvesting fertilized zebrafish eggs and placing them into embryo media and housed in an incubator with a constant temperature of 28.5° C. for the first several days of development, and throughout the course of experimentation. Embryo media consists of ultrapure water with 5 mM NaCl, 0.17 mM KCl, 0.33 mM CaCl2, 0.3 mm MgSO4 added. Embryo media was be used to make all final dilutions of test agents.
After the first 24 hours of incubation, the zebrafish larvae were treated with pronase solution (2 mg/ml in Embryo Medium) for several minutes to remove the larvae from their chorion. […] The 96-well plates were maintained in incubators at 28.5° C. and were removed from incubators only for testing or to refresh media.
Excretion of ammonia is a necessary consequence of protein breakdown. When proteins are converted to carbohydrates to provide energy, the amino group is removed and must be dealt with. In animals, the amino group is quickly oxidized to form ammonia. […] The concentration of ammonia excreted by the larvae was quantified by taking a sample of the media following the Examples and assaying it with a commercially available colorimetric assay kit (Ammonia Assay Kit #A1000, Sigma Biochemical) […]

Structure (SMILES): CCOC(=O)c1cccc(N)c1.CS(=O)(=O)O [MS-222]
- locomotor response of zebrafish to an electrical stimulus, based on excretion of ammonia: decreases the locomotor response

From US20090035220A1, “HIGH THROUGHPUT SCREENING SYSTEM AND METHOD” (priority 2007, published 2009)
